Values of other authors in patent US20230240292A1, “METHOD FOR GROWING PLANTS” (Taminco BV, priority 2020, published 2023).
Like-named read-outs stand apart in the source and are kept apart here.

What was measured:
cauliflower seedlings = conditions: seedlings treated with 20 mM BABA

Row | Reduction in growth of cauliflower seedlings (cauliflower seedlings) [%] | Root growth repression (in words) (Tomato plants; seedlings treated with as low as 0.5 mM BABA) | Root growth repression (in words) (Tomato plants; seedlings treated with as low as 0.25 mM JA) | Structure (SMILES)
1 | 14.7 | root growth repression was observed | – | CC(N)CC(=O)O (racemic) [BABA, beta-aminobutyric acid]
2 | – | – | root growth repression was observed | CC/C=C\C[C@H]1C(=O)CC[C@@H]1CC(=O)O [JA, jasmonic acid]
